Read-outs that look alike come from different tables or passages of the source.
How the values were obtained:
[1] = tested on: MRSA 10178; experiment: Etest, staphylococci MRSA 10178; format: cell-based; settings: MRSA 10178
Excerpt: (§1) The corresponding tests are made based on the usual MIC test: the Etest® (Biomerieux) strip is deposited onto the surface of a seeded agar medium in which the booster has been incorporated. This test enables solvent effect risks, that is a possible interaction with the solvent used in vitro, to be minimised.
(§2) The control corresponds to the test made without cineol. A control is made in each solvent tested: distilled water, Tween/water and DMSO.
(§3) ED control=antibiotic alone in distilled water
(§4) DMSO control=antibiotic alone in DMSO
(§5) TE control=antibiotic alone in Tween® 80

[2] = tested on: Pseudomonas Strain 08131; experiment: Etest, Pseudomonas Strain 08131; format: cell-based; settings: for MIC: Pseudomonas, STRAIN08131, Strain 08131, read-out: MIC of Pipera tazo; for MIC of Meropenem: Strain 08131
Excerpt: as §1, §2, §3, §4, §5

[3] = tested on: candidas; experiment: MIC measurement (dilution test) on yeast strains; format: cell-based, Candida; set-up: key to MIC 90 gain / MIC 50 gain: gain = MIC of antifungal alone / MIC of antifungal + booster; settings: Sertaconazole with booster, solvent DMSO
Excerpt: Inhibitory minimum concentration measurement tests are made in a solid agar medium according to international standards in force (CLSI M7-A9 Jan 12 standards): dispersion of the compounds to be tested in a Mueller Hinton gelose. An adaptation relating to the hydrophobicity of compounds and compositions is however necessary to disperse them in the medium: dilution of the compounds in a solvent. The compounds and compositions incorporated in the agar medium can be diluted beforehand in one or more solvents (Tween® 80 diluted with water, Tween® 80 diluted with […], DMSO diluted with water). The strains are deposited onto the agar surface with a steers apparatus. In the examples, different dissolution methods for products are tested in parallel to circumvent the problems of water/solvent distribution coefficient of the molecules (antimicrobial and potentiator) whereas the bacteria grow only in the aqueous phase. The technical requirement will not intervene in in vivo tests. The same dilution methods can be implemented in a liquid medium (microplates and tubes). The same methodology is implemented with fungi. […] MIC measurement: the minimum inhibitory concentration measurement tests are made in an agar solid medium according to international standards in force (CLSI standards), according to the previously defined protocol. […] The booster contribution as compared with the MIC of the antibiotic alone is expressed in a (MIC ATB)/(MIC ATB+booster) ratio. Thereby, gains are defined: […] The yeast strains tested (n=33) belong to the […] albicans, Candida tropicalis, Candida krusei, Candida parapsilosis, Candida glabrata species.

[4] = tested on: Staphylococcus; experiment: MIC measurement in agar medium (dilution test), Staph; format: cell-based; settings: potentiator alone
Excerpt: (§6) Inhibitory minimum concentration measurement tests are made in a solid agar medium according to international standards in force (CLSI M7-A9 Jan 12 standards): dispersion of the compounds to be tested in a Mueller Hinton gelose. An adaptation relating to the hydrophobicity of compounds and compositions is however necessary to disperse them in the medium: dilution of the compounds in a solvent. The compounds and compositions incorporated in the agar medium can be diluted beforehand in one or more solvents (Tween® 80 diluted with water, Tween® 80 diluted with […], DMSO diluted with water). The strains are deposited onto the agar surface with a steers apparatus. In the examples, different dissolution methods for products are tested in parallel to circumvent the problems of water/solvent distribution coefficient of the molecules (antimicrobial and potentiator) whereas the bacteria grow only in the aqueous phase. The technical requirement will not intervene in in vivo tests. The same dilution methods can be implemented in a liquid medium (microplates and tubes). The same methodology is implemented with fungi. […] MIC measurement: the minimum inhibitory concentration measurement tests are made in an agar solid medium according to international standards in force (CLSI standards), according to the previously defined protocol. […] The booster contribution as compared with the MIC of the antibiotic alone is expressed in a (MIC ATB)/(MIC ATB+booster) ratio. Thereby, gains are defined: […]

[5] = tested on: Pseudomonas Strain 08132; experiment: Etest, Pseudomonas Strain 08132; format: cell-based
Excerpt: as §1, §2, §3, §4, §5

[6] = tested on: E. Coli Strain 08138; experiment: Etest, E. Coli Strain 08138; format: cell-based; settings: for MIC: Escherichia coli, read-out: MIC of Pipera tazo, Strain 08138; for MIC of Cefoxitine / MIC of Tigecycline: Strain 08138
Excerpt: as §1, §2, §3, §4, §5

[7] = tested on: Pseudomonas aeruginosa; experiment: MIC measurement in agar medium (dilution test), Pyo; format: cell-based; settings: potentiator alone
Excerpt: as §6

[8] = booster 1 mg/L in agar, Tween/water
[9] = booster 4 mg/L in agar, Tween/water
[10] = booster 16 mg/L in agar, Tween/water

For `O=C(OCc1ccccc1)c1ccccc1` [BB, benzyl benzoate], the “MIC of Cefoxitine” value ([1]; booster 1 mg/L in agar, DMSO) was 3 µg/mL, the “MIC of Tigecycline” value ([1]; booster 1 mg/L in agar, DMSO) was 0.047 µg/mL and the “MIC of Cefoxitine” value [1, 8] was 3 µg/mL. For the same compound, the “MIC of Tigecycline” value [1, 8] was 0.094 µg/mL, the “MIC of Cefoxitine” value ([1]; booster 4 mg/L in agar, DMSO) was 2 µg/mL and the “MIC of Tigecycline” value ([1]; booster 4 mg/L in agar, DMSO) was 0.125 µg/mL. For the same compound, the “MIC of Cefoxitine” value [1, 9] was 2 µg/mL, the “MIC of Tigecycline” value [1, 9] was 0.25 µg/mL and the “MIC of Cefoxitine” value ([1]; booster 16 mg/L in agar, DMSO) was 1 µg/mL. The “MIC of Tigecycline” value ([1]; booster 16 mg/L in agar, DMSO) was 0.032 µg/mL, the “MIC of Cefoxitine” value [1, 10] was 1.5 µg/mL and the “MIC of Tigecycline” value [1, 10] was 0.047 µg/mL. For the same compound, the MIC ([2]; booster 1 mg/L in agar, DMSO) was 6 µg/mL, the MIC [2, 8] was 8 µg/mL and the MIC ([2]; booster 4 mg/L in agar, DMSO) was 8 µg/mL. The MIC [2, 9] was 6 µg/mL, the MIC ([2]; booster 16 mg/L in agar, DMSO) was 6 µg/mL and the MIC [2, 10] was 4 µg/mL. The “MIC of Meropenem” value ([2]; booster 1 mg/L in agar, DMSO) was 1.5 µg/mL, the “MIC of Meropenem” value [2, 8] was 3 µg/mL and the “MIC of Meropenem” value ([2]; booster 4 mg/L in agar, DMSO) was 2 µg/mL. For the same compound, the “MIC of Meropenem” value [2, 9] was 3 µg/mL, the “MIC of Meropenem” value ([2]; booster 16 mg/L in agar, DMSO) was 2 µg/mL and the “MIC of Meropenem” value [2, 10] was 1 µg/mL. For the same compound, the “MIC 50 gain” value ([3]; ratio 64/100) was 0.13, the “MIC 90 gain” value ([3]; ratio 64/100) was 0.50 and the “MIC 50 gain” value ([3]; ratio 64/500) was 1.00. The “MIC 90 gain” value ([3]; ratio 64/500) was 1.00, the “MIC 50” value ([4]; solvent DMSO) was 1.00% and the “MIC 90” value ([4]; solvent DMSO) was 1.00%. The “MIC 50” value ([4]; solvent Tween/prop glyc) was >1%, the “MIC 90” value ([4]; solvent Tween/prop glyc) was >1% and the “MIC 50” value ([4]; solvent Tween/water) was >1%. For the same compound, the “MIC 90” value ([4]; solvent Tween/water) was >1%, the “MIC 50” value ([4]; solvent water/water) was >1% and the “MIC 90” value ([4]; solvent water/water) was >1%. For the same compound, the “MIC of Meropenem” value ([5]; booster 4 mg/L in agar, DMSO) was 8 µg/mL, the “MIC of Meropenem” value [5, 9] was 8 µg/mL and the “MIC of Meropenem” value ([5]; booster 16 mg/L in agar, DMSO) was 2 µg/mL. The “MIC of Meropenem” value [5, 10] was 12 µg/mL, the MIC ([6]; booster 1 mg/L in agar, DMSO) was 3 µg/mL and the MIC [6, 8] was 6 µg/mL. It also gave an MIC ([6]; booster 4 mg/L in agar, DMSO) of 6 µg/mL, an MIC [6, 9] of 4 µg/mL and an MIC ([6]; booster 16 mg/L in agar, DMSO) of 6 µg/mL. The MIC [6, 10] was 4 µg/mL, the “MIC of Cefoxitine” value ([6]; booster 1 mg/L in agar, DMSO) was 2 µg/mL and the “MIC of Cefoxitine” value [6, 8] was 2 µg/mL. For the same compound, the “MIC of Cefoxitine” value ([6]; booster 4 mg/L in agar, DMSO) was 3 µg/mL, the “MIC of Cefoxitine” value [6, 9] was 2 µg/mL and the “MIC of Cefoxitine” value ([6]; booster 16 mg/L in agar, DMSO) was 2 µg/mL. For the same compound, the “MIC of Cefoxitine” value [6, 10] was 3 µg/mL, the “MIC 50” value ([7]; solvent DMSO) was 1.00% and the “MIC 90” value ([7]; solvent DMSO) was 1.00%. The “MIC 50” value ([7]; solvent Tween/prop glyc) was >1%, the “MIC 90” value ([7]; solvent Tween/prop glyc) was >1% and the “MIC 50” value ([7]; solvent Tween/water) was >1%. The “MIC 90” value ([7]; solvent Tween/water) was >1%, the “MIC 50” value ([7]; solvent water/water) was >1% and the “MIC 90” value ([7]; solvent water/water) was >1%.

For `CC(=O)OCC=Cc1ccccc1` [AC, cinnamyl acetate], the “MIC of Cefoxitine” value ([1]; booster 1 mg/L in agar, DMSO) was 4 µg/mL, the “MIC of Tigecycline” value ([1]; booster 1 mg/L in agar, DMSO) was 0.125 µg/mL and the “MIC of Cefoxitine” value [1, 8] was 4 µg/mL. For the same compound, the “MIC of Tigecycline” value [1, 8] was 0.125 µg/mL, the “MIC of Cefoxitine” value ([1]; booster 4 mg/L in agar, DMSO) was 1 µg/mL and the “MIC of Tigecycline” value ([1]; booster 4 mg/L in agar, DMSO) was 0.047 µg/mL. The “MIC of Cefoxitine” value [1, 9] was 0.75 µg/mL, the “MIC of Tigecycline” value [1, 9] was 0.047 µg/mL and the “MIC of Cefoxitine” value ([1]; booster 16 mg/L in agar, DMSO) was <0.016 µg/mL. The “MIC of Tigecycline” value ([1]; booster 16 mg/L in agar, DMSO) was <0.016 µg/mL, the “MIC of Cefoxitine” value [1, 10] was <0.016 µg/mL and the “MIC of Tigecycline” value [1, 10] was <0.016 µg/mL. The MIC ([2]; booster 1 mg/L in agar, DMSO) was 6 µg/mL, the MIC [2, 8] was 6 µg/mL and the MIC ([2]; booster 4 mg/L in agar, DMSO) was 3 µg/mL. The MIC [2, 9] was 3 µg/mL, the MIC ([2]; booster 16 mg/L in agar, DMSO) was 3 µg/mL and the MIC [2, 10] was 3 µg/mL. The “MIC of Meropenem” value ([2]; booster 1 mg/L in agar, DMSO) was 1.5 µg/mL, the “MIC of Meropenem” value [2, 8] was 2 µg/mL and the “MIC of Meropenem” value ([2]; booster 4 mg/L in agar, DMSO) was 0.75 µg/mL. The “MIC of Meropenem” value [2, 9] was 0.5 µg/mL, the “MIC of Meropenem” value ([2]; booster 16 mg/L in agar, DMSO) was 0.75 µg/mL and the “MIC of Meropenem” value [2, 10] was 0.38 µg/mL. For the same compound, the “MIC 50 gain” value ([3]; ratio 64/100) was 0.05, the “MIC 90 gain” value ([3]; ratio 64/100) was 0.28 and the “MIC 50 gain” value ([3]; ratio 64/500) was 2.00. The “MIC 90 gain” value ([3]; ratio 64/500) was 1.00, the “MIC 50” value ([4]; solvent DMSO) was 1.00% and the “MIC 90” value ([4]; solvent DMSO) was 1.00%. For the same compound, the “MIC 50” value ([4]; solvent Tween/prop glyc) was >1%, the “MIC 90” value ([4]; solvent Tween/prop glyc) was >1% and the “MIC 50” value ([4]; solvent Tween/water) was >1%. The “MIC 90” value ([4]; solvent Tween/water) was >1%, the “MIC 50” value ([4]; solvent water/water) was >1% and the “MIC 90” value ([4]; solvent water/water) was >1%. For the same compound, the “MIC of Meropenem” value [5, 8] was 8 µg/mL, the MIC ([6]; booster 1 mg/L in agar, DMSO) was 6 µg/mL and the MIC [6, 8] was 2 µg/mL. It also gave an MIC ([6]; booster 4 mg/L in agar, DMSO) of 4 µg/mL, an MIC [6, 9] of 2 µg/mL and an MIC ([6]; booster 16 mg/L in agar, DMSO) of 8 µg/mL. For the same compound, the MIC [6, 10] was 2 µg/mL, the “MIC of Cefoxitine” value ([6]; booster 1 mg/L in agar, DMSO) was 2 µg/mL and the “MIC of Tigecycline” value ([6]; booster 1 mg/L in agar, DMSO) was 0.38 µg/mL. The “MIC of Cefoxitine” value [6, 8] was 2 µg/mL, the “MIC of Tigecycline” value [6, 8] was 0.25 µg/mL and the “MIC of Cefoxitine” value ([6]; booster 4 mg/L in agar, DMSO) was 1.5 µg/mL. For the same compound, the “MIC of Tigecycline” value ([6]; booster 4 mg/L in agar, DMSO) was 0.38 µg/mL, the “MIC of Cefoxitine” value [6, 9] was 1.5 µg/mL and the “MIC of Tigecycline” value [6, 9] was 0.19 µg/mL. For the same compound, the “MIC of Cefoxitine” value ([6]; booster 16 mg/L in agar, DMSO) was 0.5 µg/mL, the “MIC of Tigecycline” value ([6]; booster 16 mg/L in agar, DMSO) was 0.125 µg/mL and the “MIC of Cefoxitine” value [6, 10] was 4 µg/mL. The “MIC of Tigecycline” value [6, 10] was 0.19 µg/mL, the “MIC 50” value ([7]; solvent DMSO) was 1.00% and the “MIC 90” value ([7]; solvent DMSO) was 1.00%. The “MIC 50” value ([7]; solvent Tween/prop glyc) was >1%, the “MIC 90” value ([7]; solvent Tween/prop glyc) was >1% and the “MIC 50” value ([7]; solvent Tween/water) was >1%. For the same compound, the “MIC 90” value ([7]; solvent Tween/water) was >1%, the “MIC 50” value ([7]; solvent water/water) was >1% and the “MIC 90” value ([7]; solvent water/water) was >1%.
